The source of these data is EP1672365A1, “Means and methods for determining and/or influencing cellular transportation” (priority 2004, dated 2006).

In data set [1] the target is T1, Bcrp1 (Mus musculus, UniProt Q7TMS5).
T1 sequence (Q7TMS5 1-657): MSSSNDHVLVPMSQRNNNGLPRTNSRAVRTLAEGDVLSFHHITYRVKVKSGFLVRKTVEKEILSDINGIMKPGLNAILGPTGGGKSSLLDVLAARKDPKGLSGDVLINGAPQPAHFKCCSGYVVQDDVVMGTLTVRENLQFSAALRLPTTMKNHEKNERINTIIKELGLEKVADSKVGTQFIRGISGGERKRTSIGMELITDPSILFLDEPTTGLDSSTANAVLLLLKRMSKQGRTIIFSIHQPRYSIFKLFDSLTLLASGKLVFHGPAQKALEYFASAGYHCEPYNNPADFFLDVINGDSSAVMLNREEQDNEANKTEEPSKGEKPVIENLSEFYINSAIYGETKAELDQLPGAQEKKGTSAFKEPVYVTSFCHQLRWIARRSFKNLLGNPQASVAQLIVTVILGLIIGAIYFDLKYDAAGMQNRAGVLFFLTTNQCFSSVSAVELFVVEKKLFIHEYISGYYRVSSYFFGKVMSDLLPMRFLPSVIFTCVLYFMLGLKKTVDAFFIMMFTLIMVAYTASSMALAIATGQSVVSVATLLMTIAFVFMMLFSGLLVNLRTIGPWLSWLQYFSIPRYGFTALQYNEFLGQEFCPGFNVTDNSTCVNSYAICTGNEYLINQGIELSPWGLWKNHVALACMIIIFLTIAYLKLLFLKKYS
Kind of data set: Milk secretion of radiolabelled compounds after intravenous administration to lactating wild-type and Bcrp1-/- mice. Further details: Bcrp1 was detected primarily in the apical membrane of alveolar epithelial cells; from tissue; host or cells: mammary gland of lactating wild-type mice (Bcrp1-/- mice as control). The data set is classed as in vivo. As to conditions: for milk secretion in Bcrp1-/- compared to wild-type mice: lactating wild-type vs Bcrp1-/- mice; for milk-to-plasma (M/P) ratio: lactating Bcrp1-/- mice; for milk-to-plasma (M/P) ratio / milk secretion in wild-type mice: 1 mg kg-1 intravenously, 30 min; for milk secretion in wild-type mice: lactating wild-type mice.
Procedure: (§1) For intravenous drug administration, 5 µl drug solution per g body weight was injected into the tail vein of mice lightly anesthetised with methoxyflurane. Levels of radioactivity in plasma and milk were determined by liquid scintillation counting. Measurements of drug secretion into the milk were done in lactating dams with pups of approximately 10 days old. To stimulate milk secretion, oxytocin (200 µl of an 1 I.U. ml^-1 solution) was administered subcutaneously to lactating dams at 30 min before milk was collected. After intravenous administration of a drug, at the indicated time approximately 50 µl milk was collected from the 4th and 5th mammary glands by gentle vacuum suction. Immediately after milk collection, a small blood sample was collected from the tail.

Data set [2] relates to Bcrp1. Description: Inhibition of Bcrp1-mediated milk secretion of topotecan by GF120918. The data set is classed as in vivo. As to conditions: GF120918 250 mg/kg orally 2 hours before [14C]-topotecan 1 mg/kg i.v., lactating mice. As for the experimental part:
GF120918 was suspended at […] in water for injection and concentrated stock vehicle (1:1). The concentrated stock vehicle consisted of hydroxypropyl methyl cellulose (10 g/l) and 2% Tween 80 in water for injection. Animals were administered GF120918 (250 mg/kg; 10 µl of drug solution/g body weight) by gavage into the stomach at 2 hours before [^14C]-topotecan injection. [^14C]-topotecan (1 mg/kg) was injected into the vein of mice lightly anesthetized with methoxyflurane. To stimulate milk secretion, oxytocin (200 µl of 1 I.U./ml solution) was administered subcutaneously to lactating dams at 15 min before each milk sample was collected. At indicated time points (15, 30, 60 and 120 min after [^14C]-topotecan injection), 50 µl of milk was collected from the mammary glands by gentle vacuum suction. […] At the last sampling point, animals were sacrificed by cardiac puncture after anesthesia with methoxyflurane.

In the next data set the target is T2, human BCRP (Homo sapiens, UniProt Q9UNQ0).
T2 construct: made in house; host or cells: Sf9 insect cells infected with BCRP-expressing baculovirus (membrane vesicles)
T2 sequence (Q9UNQ0 1-655): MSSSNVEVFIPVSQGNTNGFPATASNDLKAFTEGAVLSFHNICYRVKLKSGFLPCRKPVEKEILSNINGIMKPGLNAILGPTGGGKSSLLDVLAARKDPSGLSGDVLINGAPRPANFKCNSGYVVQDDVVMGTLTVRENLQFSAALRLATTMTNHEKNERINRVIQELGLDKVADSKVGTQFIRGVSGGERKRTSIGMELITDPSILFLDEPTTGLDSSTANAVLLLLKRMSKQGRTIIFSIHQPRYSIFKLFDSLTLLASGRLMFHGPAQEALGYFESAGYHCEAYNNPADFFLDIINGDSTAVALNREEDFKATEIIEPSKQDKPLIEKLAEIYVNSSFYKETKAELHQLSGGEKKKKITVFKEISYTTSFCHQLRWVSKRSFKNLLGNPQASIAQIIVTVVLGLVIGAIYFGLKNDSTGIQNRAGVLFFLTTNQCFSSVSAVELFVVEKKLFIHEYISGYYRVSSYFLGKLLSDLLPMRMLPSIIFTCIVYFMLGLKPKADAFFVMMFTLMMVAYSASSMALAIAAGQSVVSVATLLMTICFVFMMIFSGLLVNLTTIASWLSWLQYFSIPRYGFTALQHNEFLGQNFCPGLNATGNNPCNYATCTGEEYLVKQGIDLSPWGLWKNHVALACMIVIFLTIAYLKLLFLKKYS
Kind of data set: Vesicular transport assay (inside-out vesicle uptake, Sf9 membrane vesicles). It counts as biochemical. Conditions: 3H-riboflavin 0.25 µM, vesicles from Sf9 cells with BCRP-expressing or wild-type baculovirus, 4 mM ATP. As for the experimental part:
Vesicular transport assays were performed as described (Ozvegy, C., et al. Functional characterization of the human multidrug transporter, ABCG2, expressed in insect cells. Biochem. Biophys. Res. Commun. 285, 111-117 (2001); Zelcer, N., et al. Evidence for two interacting ligand-binding sites in human MRP2 (ABCC2). J. Biol. Chem. 278, 23538-23544 (2003)), using vesicles from Sf9 cells infected with BCRP-expressing or wild-type baculovirus, in the presence or absence of 4 mM ATP. ATP-dependent transport was calculated by subtracting the uptake in absence of ATP from that in the presence of ATP.

In data set [3] the target is T1, Bcrp1. As to conditions: in vivo.
Procedure: as §1
Samples were protected from light during the whole sample pre-treatment. Methanol (4 times the sample volume) was added to plasma and milk samples to precipitate proteins. […] The flow was 1.0 ml min^-1 and the detection was performed fluorimetrically using a FP920 Intelligent Fluorescence Detector (Jasco International Co. Ltd., Tokyo, Japan) with excitation/emission wavelengths set at 372/520 nm and 40 nm bandwidth. The capacity of the flow-cell of the fluorescence detector was 16 µl. […] Calibration curves were calculated by least-squares linear regression using a weighting factor of the reciprocal of the concentration.

“Also recorded” adds a separate entry of the source.

Take `C[C@]12CC[C@H](OS(=O)(=O)O)CC1=CC[C@@H]1[C@@H]2CC[C@]2(C)C(=O)CC[C@@H]12` [DHEAS, dehydroepiandrosterone-sulfate]: the “milk secretion in Bcrp1-/- compared to wild-type mice” value at Bcrp1 [1] is “not affected”. Take `COc1cc2c(cc1OC)CN(CCc1ccc(NC(=O)c3cccc4c(=O)c5cccc(OC)c5[nH]c34)cc1)CC2` [GF120918, N-{4-[2-(1,2,3,4-tetrahydro-6,7-dimethoxy-2-isoquinolinyl)-ethyl]-phenyl}-9,10-dihydro-5-methoxy-9-oxo-4-acridine carboxamide]: in the data set on Bcrp1 [2], the “effect on active secretion of topotecan into the milk by Bcrp1” value is recorded as “effectively reversed; also recorded: capable of at least in part inhibiting transport of topotecan into the milk”.

Consider `Cn1c(N)nc2ncc(-c3ccccc3)cc21` [PhIP, 2-amino-1-methyl-6-phenylimidazo[4,5-b]pyridine], for which, on Bcrp1 [1], the “milk-to-plasma (M/P) ratio” value was “<= 1” and the “milk secretion in wild-type mice” value is on record as “highly concentrated into the milk”. In the case of `Nc1nc2ncc(CNc3ccc(C(=O)N[C@@H](CCC(=O)O)C(=O)O)cc3)nc2c(=O)[nH]1` [folic acid], the “milk secretion in Bcrp1-/- compared to wild-type mice” value on Bcrp1 [1] is “not affected”. As for `Cc1cc2nc3c(=O)[nH]c(=O)nc-3n(C[C@H](O)[C@H](O)[C@H](O)CO)c2cc1C` [riboflavin], the “ATP-dependent transport by human BCRP” value at human BCRP is “confirmed ATP-dependent transport”. At Bcrp1 [3], the “decrease in the endogenous milk secretion” value is 67 fold. Take `CC[C@@]1(O)C(=O)OCc2c1cc1n(c2=O)Cc2cc3c(CN(C)C)c(O)ccc3nc2-1` [topotecan]: at Bcrp1 [1], the “milk-to-plasma (M/P) ratio” value is given as “<= 1” and the “milk secretion in wild-type mice” value is “highly concentrated into the milk”. Consider vitamin B12, for which the “milk secretion in Bcrp1-/- compared to wild-type mice” value at Bcrp1 [1] is reported as “not affected”.
